Experimental data reported in patent EP0025288A1, “Derivatives of monic acid, processes for their preparation, compositions containing them and their preparation” (priority 1979, dated 1981).
Converted amounts (≈) assume the structure as drawn.

Experiments:
E coli NCTC 10418 = assay: MIC, veterinary bacteria; format: cell-based; conditions: veterinary bacteria (Table 2), read-out: MIC
S dublin S7 = assay: MIC, veterinary bacteria; format: cell-based; conditions: veterinary bacteria (Table 2), read-out: MIC
Bord bronchisptica BO9 = assay: MIC, veterinary bacteria; format: cell-based; conditions: veterinary bacteria (Table 2), read-out: MIC
Past multocida PA2 = assay: MIC, veterinary bacteria; format: cell-based; conditions: veterinary bacteria (Table 2), read-out: MIC
[1] = tested on: Corynebacterium pyogenes CY1; assay: MIC, veterinary bacteria; format: cell-based; conditions: veterinary bacteria (Table 2), read-out: MIC
[2] = tested on: Staph aureus 152 (pen sens); assay: MIC, veterinary bacteria; format: cell-based; conditions: Staphylococcus aureus, veterinary bacteria (Table 2), read-out: MIC
[3] = tested on: Strep suis (group D) SPS11; assay: MIC, veterinary bacteria; format: cell-based; conditions: veterinary bacteria (Table 2), read-out: MIC
Strep uberis SPU1 = assay: MIC, veterinary bacteria; format: cell-based; conditions: veterinary bacteria (Table 2), read-out: MIC
Strep agalactiae SPA1 = assay: MIC, veterinary bacteria; format: cell-based; conditions: veterinary bacteria (Table 2), read-out: MIC
M. suipneumoniae NB12 = assay: MIC, anti-mycoplasmal, Friis broth solidified with 0.9% agarose; format: cell-based; conditions: Mesomycoplasma hyopneumoniae, 144 h, inoculum 10^3 to 10^5 C.F.U., 6 days incubation at 37°C, read-out: in vitro MIC
M. suipneumoniae JF 435 = assay: as above; format: cell-based; conditions: Mesomycoplasma hyopneumoniae, JF435, 144 h, inoculum 10^3 to 10^5 C.F.U., 6 days incubation at 37°C, read-out: in vitro MIC
M. suipneumoniae HK(2) = assay: as above; format: cell-based; conditions: Mesomycoplasma hyopneumoniae, 144 h, inoculum 10^3 to 10^5 C.F.U., 6 days incubation at 37°C, read-out: in vitro MIC
M. suipneumoniae Str. 11 = assay: as above; format: cell-based; conditions: Mesomycoplasma hyopneumoniae, 144 h, inoculum 10^3 to 10^5 C.F.U., 6 days incubation at 37°C, read-out: in vitro MIC
[4] = tested on: M. suipneumoniae J2206/183b; assay: as above; format: cell-based; conditions: Mesomycoplasma hyopneumoniae, 144 h, inoculum 10^3 to 10^5 C.F.U., 6 days incubation at 37°C, read-out: in vitro MIC
M. suipneumoniae MS 16 = assay: as above; format: cell-based; conditions: Mesomycoplasma hyopneumoniae, MS16, 144 h, inoculum 10^3 to 10^5 C.F.U., 6 days incubation at 37°C, read-out: in vitro MIC
[5] = tested on: M. suipneumoniae PW/C/210; assay: as above; format: cell-based; conditions: Mesomycoplasma hyopneumoniae, 144 h, inoculum 10^3 to 10^5 C.F.U., 6 days incubation at 37°C, read-out: in vitro MIC
M. suipneumoniae LABER = assay: as above; format: cell-based; conditions: Mesomycoplasma hyopneumoniae, 144 h, inoculum 10^3 to 10^5 C.F.U., 6 days incubation at 37°C, read-out: in vitro MIC
M. suipneumoniae UCD 1 = assay: as above; format: cell-based; conditions: Mesomycoplasma hyopneumoniae, UCD1, 144 h, inoculum 10^3 to 10^5 C.F.U., 6 days incubation at 37°C, read-out: in vitro MIC
[6] = tested on: M. suipneumoniae ATCC 25095; assay: as above; format: cell-based; conditions: Mesomycoplasma hyopneumoniae, ATCC25095, 144 h, inoculum 10^3 to 10^5 C.F.U., 6 days incubation at 37°C, read-out: in vitro MIC
[7] = tested on: M. suipneumoniae NCTC 10110; assay: as above; format: cell-based; conditions: Mesomycoplasma hyopneumoniae, NCTC10110, 144 h, inoculum 10^3 to 10^5 C.F.U., 6 days incubation at 37°C, read-out: in vitro MIC
M. hyorhinis ATCC 23234 = assay: as above; format: cell-based; conditions: Mesomycoplasma hyorhinis, ATCC23234, 144 h, inoculum 10^3 to 10^5 C.F.U., 6 days incubation at 37°C, read-out: in vitro MIC
M. hyorhinis ATCC 25021 = assay: as above; format: cell-based; conditions: Mesomycoplasma hyorhinis, ATCC25021, 144 h, inoculum 10^3 to 10^5 C.F.U., 6 days incubation at 37°C, read-out: in vitro MIC
[8] = tested on: M. hyosynoviae ATCC 25591; assay: as above; format: cell-based; conditions: 144 h, inoculum 10^3 to 10^5 C.F.U., 6 days incubation at 37°C, read-out: in vitro MIC
M. bovis NCTC 10131 = assay: microbe, parasite or virus in culture; format: cell-based; conditions: NCTC10131, 144 h, read-out: in vitro MIC
M. dispar NCTC 10125 = assay: MIC, anti-mycoplasmal, Friis broth solidified with 0.9% agarose; format: cell-based; conditions: 144 h, inoculum 10^3 to 10^5 C.F.U., 6 days incubation at 37°C, read-out: in vitro MIC
M. gallisepticum S6 = assay: as above; format: cell-based; conditions: Mycoplasmoides gallisepticum, 144 h, inoculum 10^3 to 10^5 C.F.U., 6 days incubation at 37°C, read-out: in vitro MIC
M. pneumoniae ATCC 15492 = assay: as above; format: cell-based; conditions: Mycoplasmoides pneumoniae, ATCC15492, 144 h, inoculum 10^3 to 10^5 C.F.U., 6 days incubation at 37°C, read-out: in vitro MIC
[9] = Serum binding by ultrafiltration; format: in vitro ADME, pig; conditions: pig, serum, compounds at 8 mcg/ml, microbiological assay (B. subtilis ATCC 6633), read-out: % bound to pig serum (converted)
Experimental: Serum binding was assessed by ultrafiltration of procine serum containing compounds at 8 mcg/ml, and through an Amicon CF50A ultrafiltration cone. Separation of ultrafiltrate was achieved by centrifugation.

[10] = Mean serum concentration in neonatal piglets after intramuscular or oral administration; format: in vivo; conditions: pig, 50 mg/kg; for concentration at 1 h: 60'
Experimental: e) Mean serum concentration in neonatal piglets of Examples 4 and 5 after intramuscular or oral administration at 50 mg/kg
Blood levels were assessed in neonatal piglets (2 to 4 animals per group and man bodyweights about 2 kg). The dose was 50 mg/kg (dose solution = 25 mg/ml in 25% ethanol). Doses were given by intramuscular injection and orally by stomach tube. Piglets were bled at intervals up to 8 and at 24 hours, and serum assayed microbiologically (B. subtilis ATCC 6633).

Question: Which MIC (E coli NCTC 10418) does the source give for `CC(=CC(=O)OCCCC(=O)c1ccccc1)CC1OCC(CC2OC2C(C)C(C)O)C(O)C1O` (stereo not drawn) [Example 5, 4-Phenylbutan-4-onyl monate A] here?
Answer: Its MIC is 80 µg/mL (≈ 163 µM).

Question: What about the MIC (S dublin S7) of the same compound?
Answer: Its MIC is over 80 µg/mL.

Question: What about the MIC (Bord bronchisptica BO9) of the same compound?
Answer: The MIC was 5 µg/mL (≈ 10.2 µM).

Question: And the MIC (Past multocida PA2)?
Answer: The MIC was 0.312 µg/mL (≈ 0.636 µM).

Question: And the MIC [1]?
Answer: The MIC was over 80 µg/mL.

Question: What about the MIC [2] of the same compound?
Answer: Its MIC is 0.156 µg/mL (≈ 0.318 µM).

Question: And the MIC [3]?
Answer: The MIC was 5 µg/mL (≈ 10.2 µM).

Question: And the MIC (Strep uberis SPU1)?
Answer: The MIC was 0.07 µg/mL (≈ 0.143 µM).

Question: And the MIC (Strep agalactiae SPA1)?
Answer: Its MIC is 0.625 µg/mL (≈ 1.27 µM).

Question: And the MIC (M. suipneumoniae NB12)?
Answer: The MIC was 0.5 µg/mL (≈ 1.02 µM).

Question: What about the MIC (M. suipneumoniae JF 435) of the same compound?
Answer: The MIC was 0.5 µg/mL (≈ 1.02 µM).

Question: And the MIC (M. suipneumoniae HK(2))?
Answer: The MIC was 0.5 µg/mL (≈ 1.02 µM).

Question: And the MIC (M. suipneumoniae Str. 11)?
Answer: Its MIC is 0.25 µg/mL (≈ 0.51 µM).

Question: What about the MIC [4] of the same compound?
Answer: The MIC was 0.5 µg/mL (≈ 1.02 µM).

Question: And the MIC (M. suipneumoniae MS 16)?
Answer: The MIC was 0.25 µg/mL (≈ 0.51 µM).

Question: What about the MIC [5] of the same compound?
Answer: Its MIC is 0.25 µg/mL (≈ 0.51 µM).

Question: What about the MIC (M. suipneumoniae LABER) of the same compound?
Answer: Its MIC is 0.25 µg/mL (≈ 0.51 µM).

Question: And the MIC (M. suipneumoniae UCD 1)?
Answer: The MIC was 0.5 µg/mL (≈ 1.02 µM).

Question: And the MIC [6]?
Answer: The MIC was 0.25 µg/mL (≈ 0.51 µM).

Question: What about the MIC [7] of the same compound?
Answer: Its MIC is 0.5 µg/mL (≈ 1.02 µM).

Question: What about the MIC (M. hyorhinis ATCC 23234) of the same compound?
Answer: The MIC was 0.25 µg/mL (≈ 0.51 µM).

Question: What about the MIC (M. hyorhinis ATCC 25021) of the same compound?
Answer: The MIC was 0.25 µg/mL (≈ 0.51 µM).

Question: And the MIC [8]?
Answer: The MIC was 0.05 µg/mL (≈ 0.102 µM).

Question: And the MIC (M. bovis NCTC 10131)?
Answer: The MIC was at most 0.01 µg/mL.

Question: And the MIC (M. dispar NCTC 10125)?
Answer: The MIC was 0.1 µg/mL (≈ 0.204 µM).

Question: What about the MIC (M. gallisepticum S6) of the same compound?
Answer: Its MIC is 1 µg/mL (≈ 2.04 µM).

Question: What about the MIC (M. pneumoniae ATCC 15492) of the same compound?
Answer: Its MIC is 1 µg/mL (≈ 2.04 µM).

Question: What about the fraction unbound [9] of the same compound?
Answer: Its fraction unbound is 0.036.

Question: And the concentration at 10 min ([10]; im)?
Answer: The concentration at 10 min was 1900 ng/mL.

Question: What about the concentration at 20 min ([10]; im) of the same compound?
Answer: Its concentration at 20 min is 2300 ng/mL.

Question: What about the concentration at 40 min ([10]; im) of the same compound?
Answer: Its concentration at 40 min is 1500 ng/mL.

Question: And the concentration at 1 h ([10]; im)?
Answer: Its concentration at 1 h is 1200 ng/mL.

Question: And the concentration at 2 h ([10]; im)?
Answer: The concentration at 2 h was 570 ng/mL.

Question: And the concentration at 3 h ([10]; im)?
Answer: The concentration at 3 h was 380 ng/mL.

Question: And the concentration at 4 h ([10]; im)?
Answer: Its concentration at 4 h is 330 ng/mL.

Question: And the concentration at 6 h ([10]; im)?
Answer: Its concentration at 6 h is 310 ng/mL.

Question: And the concentration at 8 h ([10]; im)?
Answer: The concentration at 8 h was 180 ng/mL.

Question: What about the concentration at 24 h ([10]; im) of the same compound?
Answer: Its concentration at 24 h is under 200 ng/mL.

Question: And the concentration at 10 min ([10]; po)?
Answer: Its concentration at 10 min is 1200 ng/mL.

Question: And the concentration at 20 min ([10]; po)?
Answer: The concentration at 20 min was 1200 ng/mL.

Question: What about the concentration at 40 min ([10]; po) of the same compound?
Answer: The concentration at 40 min was 1200 ng/mL.

Question: What about the concentration at 1 h ([10]; po) of the same compound?
Answer: Its concentration at 1 h is 860 ng/mL.

Question: And the concentration at 2 h ([10]; po)?
Answer: Its concentration at 2 h is 230 ng/mL.

Question: What about the concentration at 3 h ([10]; po) of the same compound?
Answer: Its concentration at 3 h is 160 ng/mL.

Question: And the concentration at 4 h ([10]; po)?
Answer: The concentration at 4 h was 80 ng/mL.

Question: And the concentration at 6 h ([10]; po)?
Answer: Its concentration at 6 h is 50 ng/mL.

Question: And the concentration at 8 h ([10]; po)?
Answer: The concentration at 8 h was 30 ng/mL.

Question: What about the concentration at 24 h ([10]; po) of the same compound?
Answer: The concentration at 24 h was under 200 ng/mL.
